Assay results: PubChem BioAssay AID248 (DTP/NCI, 2004)
Where “and” joins values, the source holds several entries; their conditions need not be identical. Equal entries are not always repeated. Toxic doses and inconclusive results are not listed.

Tested on: L1210 leukemia ip in BDF1 mice, survival T/C
Experiment: NCI In Vivo Anticancer Drug Screen. Data for tumor model L1210 Leukemia (intraperitoneal) in B6D2F1 (BDF1) mice
Details: endpoint: mean survival time, higher = longer survival
Experimental: The antitumor activity of compounds was measured in mice bearing transplantable tumors. Survival or tumor size were measured and the results are expressed as the measurement made in the treated group (T) divided by the measurement made in the vehicle treated control group (C). The tumor model used in this assay is L1210 Leukemia (intraperitoneal) in B6D2F1 (BDF1) mice

[1] = dose: 100.0 mg/kg/injection, schedule: Q01DX009 (ip), vehicle: saline with Tween-80
[2] = dose: 200.0 mg/kg/injection, schedule: Q01DX009 (ip), vehicle: saline with Tween-80
[3] = dose: 15.0 mg/kg/injection, schedule: Q01DX Z (ip), vehicle: carboxymethylcellulose (CMC)
[4] = dose: 30.0 mg/kg/injection, schedule: Q01DX Z (ip), vehicle: carboxymethylcellulose (CMC)
[5] = dose: 60.0 mg/kg/injection, schedule: Q01DX Z (ip), vehicle: carboxymethylcellulose (CMC)
[6] = dose: 120.0 mg/kg/injection, schedule: Q01DX Z (ip), vehicle: carboxymethylcellulose (CMC)
[7] = dose: 240.0 mg/kg/injection, schedule: Q01DX Z (oral), vehicle: carboxymethylcellulose (CMC)
[8] = dose: 480.0 mg/kg/injection, schedule: Q01DX Z (oral), vehicle: carboxymethylcellulose (CMC)
[9] = dose: 960.0 mg/kg/injection, schedule: Q01DX Z (oral), vehicle: carboxymethylcellulose (CMC)
[10] = dose: 50.0 mg/kg/injection, schedule: Q04DX003 (ip), vehicle: Klucel (hydroxypropylcellulose) (HPC)
[11] = dose: 100.0 mg/kg/injection, schedule: Q01DX001 (ip), vehicle: Klucel (hydroxypropylcellulose) (HPC)
[12] = dose: 200.0 mg/kg/injection, schedule: Q01DX001 (ip), vehicle: Klucel (hydroxypropylcellulose) (HPC)
[13] = dose: 400.0 mg/kg/injection, schedule: Q01DX001 (ip), vehicle: Klucel (hydroxypropylcellulose) (HPC)
[14] = dose: 400.0 mg/kg/injection, schedule: Q01DX001 (ip), vehicle: saline
[15] = dose: 100.0 mg/kg/injection, schedule: Q04DX003 (ip), vehicle: Klucel (hydroxypropylcellulose) (HPC)
[16] = dose: 200.0 mg/kg/injection, schedule: Q04DX003 (ip), vehicle: Klucel (hydroxypropylcellulose) (HPC)
[17] = dose: 400.0 mg/kg/injection, schedule: Q04DX003 (ip), vehicle: Klucel (hydroxypropylcellulose) (HPC)
[18] = dose: 100.0 mg/kg/injection, schedule: Q04DX003 (ip), vehicle: saline with Tween-80
[19] = dose: 200.0 mg/kg/injection, schedule: Q04DX003 (ip), vehicle: saline with Tween-80
[20] = dose: 400.0 mg/kg/injection, schedule: Q04DX003 (ip), vehicle: saline with Tween-80
[21] = dose: 100.0 mg/kg/injection, schedule: Q01DX001 (ip), vehicle: saline
[22] = dose: 200.0 mg/kg/injection, schedule: Q01DX001 (ip), vehicle: saline

CCCCOc1ccc(/C=N/NC(=O)CNC(=O)Nc2cccc([N+](=O)[O-])c2)cc1
T/C (dose: 50.0 mg/kg/injection, schedule: Q01DX009 (ip), vehicle: saline with Tween-80): 96 % of control | T/C [1]: 96 % of control | T/C [2]: 93 % of control

CN(C)CCCNc1c2ccccc2nc2ccc(F)cc12
T/C (dose: 5.0 mg/kg/injection, schedule: Q01DX001 (ip), vehicle: saline): 100 % of control | T/C (dose: 10.0 mg/kg/injection, schedule: Q01DX001 (ip), vehicle: saline): 96 % of control | T/C (dose: 20.0 mg/kg/injection, schedule: Q01DX001 (ip), vehicle: saline): 107 % of control

N/C(=N\N=C\c1ccc2c(c1)OCO2)N/N=C\c1ccc2c(c1)OCO2
T/C [3]: 95 % of control | T/C [4]: 101 % of control | T/C [5]: 97 % of control | T/C [6]: 94 % of control | T/C (dose: 120.0 mg/kg/injection, schedule: Q01DX Z (oral), vehicle: carboxymethylcellulose (CMC)): 95 % of control | T/C [7]: 103 % of control | T/C [8]: 101 % of control | T/C [9]: 97 % of control

CC(=O)Nc1cccc2c(C)ccnc12
T/C (dose: 12.5 mg/kg/injection, schedule: Q01DX009 (ip), vehicle: Klucel (hydroxypropylcellulose) (HPC)): 99 % of control | T/C (dose: 12.5 mg/kg/injection, schedule: Q04DX003 (ip), vehicle: Klucel (hydroxypropylcellulose) (HPC)): 94 % of control | T/C (dose: 25.0 mg/kg/injection, schedule: Q01DX009 (ip), vehicle: Klucel (hydroxypropylcellulose) (HPC)): 97 % of control | T/C (dose: 25.0 mg/kg/injection, schedule: Q04DX003 (ip), vehicle: Klucel (hydroxypropylcellulose) (HPC)): 98 % of control | T/C (dose: 50.0 mg/kg/injection, schedule: Q01DX009 (ip), vehicle: Klucel (hydroxypropylcellulose) (HPC)): 87 % of control | T/C [10]: 95 % of control

CCOC(=O)CC(=O)c1ccc(OC)cc1
T/C [11]: 101 % of control | T/C [12]: 106 % of control | T/C [13]: 107 % of control

CS/C(=C\C(=O)c1ccccc1)C(=O)O
T/C (dose: 100.0 mg/kg/injection, schedule: Q04DX002 (ip), vehicle: saline): 110 % of control | T/C (dose: 200.0 mg/kg/injection, schedule: Q04DX002 (ip), vehicle: saline): 100 % of control | T/C (dose: 400.0 mg/kg/injection, schedule: Q04DX002 (ip), vehicle: saline): 100 % of control

COc1ccc(S(=O)(=O)Nc2cc([N+](=O)[O-])ccc2OC)cc1
T/C (dose: 100.0 mg/kg/injection, schedule: Q01DX009 (ip), vehicle: Klucel (hydroxypropylcellulose) (HPC)): 103 % of control | T/C (dose: 200.0 mg/kg/injection, schedule: Q01DX009 (ip), vehicle: Klucel (hydroxypropylcellulose) (HPC)): 97 % of control | T/C (dose: 400.0 mg/kg/injection, schedule: Q01DX009 (ip), vehicle: Klucel (hydroxypropylcellulose) (HPC)): 95 % of control

c1ccc(CCSc2ncnc3nc[nH]c23)cc1
T/C (dose: 31.3 mg/kg/injection, schedule: Q01DX Z (ip), vehicle: saline): 94 % of control | T/C (dose: 62.5 mg/kg/injection, schedule: Q01DX Z (ip), vehicle: saline): 94 % of control | T/C (dose: 100.0 mg/kg/injection, schedule: Q01DX009 (ip), vehicle: saline): 122 % of control | T/C (dose: 125.0 mg/kg/injection, schedule: Q01DX Z (ip), vehicle: saline): 97 % of control | T/C (dose: 175.0 mg/kg/injection, schedule: Q01DX001 (ip), vehicle: saline): 100 % of control | T/C (dose: 250.0 mg/kg/injection, schedule: Q01DX Z (ip), vehicle: saline): 100 % of control and 101 % of control | T/C (dose: 265.0 mg/kg/injection, schedule: Q01DX001 (ip), vehicle: saline): 93 % of control | T/C (dose: 340.0 mg/kg/injection, schedule: Q01DX009 (ip), vehicle: saline): 159 % of control | T/C [14]: 108 % of control | T/C (dose: 500.0 mg/kg/injection, schedule: Q01DX Z (ip), vehicle: saline): 111 % of control | T/C (dose: 600.0 mg/kg/injection, schedule: Q01DX001 (ip), vehicle: saline): 101 % of control | T/C (dose: 1000.0 mg/kg/injection, schedule: Q01DX Z (ip), vehicle: saline): 117 % of control

CCCC(NC(=O)CCl)C(=O)O (configuration not stated)
T/C (dose: 100.0 mg/kg/injection, schedule: Q04DX003 (ip), vehicle: saline): 96 % of control | T/C (dose: 200.0 mg/kg/injection, schedule: Q04DX003 (ip), vehicle: saline): 101 % of control

COc1c2c(c3c(c1O)c(=O)c1ccccc1n3C)OCO2
T/C (dose: 50.0 mg/kg/injection, schedule: Q01DX001 (ip), vehicle: carboxymethylcellulose (CMC)): 104 % of control | T/C (dose: 100.0 mg/kg/injection, schedule: Q01DX001 (ip), vehicle: carboxymethylcellulose (CMC)): 90 % of control | T/C (dose: 200.0 mg/kg/injection, schedule: Q01DX001 (ip), vehicle: carboxymethylcellulose (CMC)): 90 % of control

CS(=O)(=O)OCCN(CCOS(C)(=O)=O)c1ccc(C=Nc2ccc(-c3csc(-c4ccc(Br)cc4)n3)cc2)c(Cl)c1
T/C [10]: 107 % of control | T/C [15]: 112 % of control and 115 % of control | T/C [16]: 114 % of control and 118 % of control | T/C [17]: 123 % of control

Cc1ccccc1OC(F)(F)C(F)Cl (configuration not stated)
T/C [1]: 103 % of control | T/C [18]: 96 % of control | T/C [2]: 91 % of control | T/C [19]: 94 % of control | T/C (dose: 400.0 mg/kg/injection, schedule: Q01DX009 (ip), vehicle: saline with Tween-80): 86 % of control | T/C [20]: 96 % of control

O=C1OC2CCCCC2OC1=O (configuration not stated)
T/C [21]: 101 % of control | T/C [22]: 101 % of control

O=[As](O)(O)c1ccccc1N=Nc1ccccc1
T/C (dose: 75.0 mg/kg/injection, schedule: Q01DX009 (ip), vehicle: Klucel (hydroxypropylcellulose) (HPC)): 100 % of control | T/C (dose: 150.0 mg/kg/injection, schedule: Q01DX009 (ip), vehicle: Klucel (hydroxypropylcellulose) (HPC)): 87 % of control | T/C (dose: 300.0 mg/kg/injection, schedule: Q01DX009 (ip), vehicle: Klucel (hydroxypropylcellulose) (HPC)): 108 % of control

O=[N+]([O-])c1cccc(C=Nc2ccc(Cl)cc2Cl)c1
T/C [11]: 92 % of control | T/C [15]: 102 % of control | T/C [12]: 91 % of control | T/C [16]: 98 % of control | T/C [13]: 91 % of control | T/C [17]: 89 % of control

Cc1ccc2[nH]c3ccccc3c(=O)c2c1
T/C (dose: 75.0 mg/kg/injection, schedule: Q01DX001 (ip), vehicle: saline): 93 % of control | T/C (dose: 150.0 mg/kg/injection, schedule: Q01DX001 (ip), vehicle: saline): 91 % of control | T/C (dose: 300.0 mg/kg/injection, schedule: Q01DX001 (ip), vehicle: saline): 90 % of control

CCOC(=O)CCC(NC(=O)c1ccc(NCc2nnc3nc(N)n4nnnc4c3n2)cc1)C(=O)OCC (configuration not stated)
T/C (dose: 25.0 mg/kg/injection, schedule: Q01DX001 (ip), vehicle: saline with Tween-80): 96 % of control | T/C (dose: 50.0 mg/kg/injection, schedule: Q01DX001 (ip), vehicle: saline with Tween-80): 109 % of control | T/C (dose: 100.0 mg/kg/injection, schedule: Q01DX001 (ip), vehicle: saline with Tween-80): 100 % of control

CCN(CC)CCOC(=O)C(S)(c1ccccc1)c1ccccc1
T/C (dose: 75.0 mg/kg/injection, schedule: Q01DX001 (ip), vehicle: other): 100 % of control

COc1ccc(/C(Cc2ccccc2)=N\N=C(N)N)cc1
T/C [3]: 97 % of control | T/C [4]: 97 % of control | T/C [5]: 97 % of control | T/C [6]: 101 % of control | T/C [7]: 108 % of control | T/C [8]: 104 % of control | T/C [9]: 88 % of control

COc1cc(C)nc(OC)n1
T/C [21]: 96 % of control | T/C [22]: 96 % of control | T/C [14]: 96 % of control

OCC1OC(c2ccccc2)OC2C(CO)OC(c3ccccc3)OC12 (configuration not stated)
T/C [18]: 93 % of control | T/C [19]: 96 % of control | T/C [20]: 89 % of control
